The text below walks through data of publication PMC6544338, “Comparative biophysical characterization: A screening tool for acetylcholinesterase inhibitors” (PLoS ONE, 2019).

As a reminder, the IC50 is the concentration that gives 50% inhibition. As a reminder, the Kd is the free concentration of one partner at which half of the binding sites on the other are occupied at equilibrium, for simple one-to-one binding.

Where two headings read alike, the source gives them in different places.

The subject of experiment [1] is AChE. The conditions noted are these: cited from earlier work.
Experiment [2] addresses T1, AChE (Electrophorus electricus, UniProt O42275).
T1 construct: purchased Sigma (St. Louis, MO, USA)
In words: Far-UV circular dichroism of AChE with small molecules (secondary structure composition). The settings on record: single molecule; for Turns of AChE in presence of the molecule: AChE alone 0; for α helix of AChE in presence of the molecule: AChE alone 3.6±0.012; for Random of AChE in presence of the molecule: AChE alone 44.2±0.46; for β sheets of AChE in presence of the molecule: AChE alone 52.3±0.6. How it is done: Protein solutions 0.5 milligram per milliliter (mgml^-1) was prepared in 10 mM PBS at pH 7.7. Scans were performed at room temperature using 0.1 cm path length quartz cuvette with 8 s differential integration time at a scan rate of 100 nano meter per minute (nm min^-1). The CD spectrum of AChE enzyme individually and with different small molecules, also in combination was recorded. All spectra resulted from averaging three scans were corrected from the buffer blank. Results were expressed as molar ellipticity (°cm^2 dmol^-1) based on a mean amino acid residue weight (MRW) 110 Da for AChE. The molar ellipticity was determined as [θ obs] = {100 × (MRW) × θobs/cl}, where θ is the observed ellipticity in degrees at a given wavelength, c is the protein concentration in mgml^-1, and l is the path length in cm.
The relative percentages of the secondary structure elements were estimated in triplicates using Manager Suite software.
(Circular dichroism is the unequal absorption of left and right circularly polarised light.)

Experiment [3] addresses T2, immobilized AChE (Electrophorus electricus, UniProt O42275).
T2 construct: purchased Sigma (St. Louis, MO, USA)
In words: biochemical. The settings on record: for Kd / Ka1 / Kd1: 25°C. Type of experiment: binding. How it is done: (§1) The protocol was followed with some modifications for enzyme immobilization, scouting and screening. SPR interactions were performed using a Biacore X100 optical biosensor (GE Healthcare Life Sciences, Bangalore, India) at 25°C. SPR analysis was carried out in PBS (200 mM, pH 7.7) from the analyte stock solutions, working solutions were diluted before passing on to the sensor surface. Data collection was done with the help of Biacore control software ver 2.0.2 Sets of experiments were carried out by monitoring change in the refractive index as a function of time under constant flow conditions. The relative amount of inhibitor bound to the AChE was determined by measuring the net increase in the refractive index over time compared to buffer as a control. During each run, there is an inline subtraction of the reference surface. Change is reported regarding response units (RU). The surface was washed with 5 cycles of running buffer (PBS) before next analytes.
(§2) As per pH scouting studies, AChE enzyme (100μg) was dissolved in 100 mM sodium acetate buffer pH 4.5 and was immobilized to the CM5 sensor chip by using the amine coupling method. The flow rate was kept constant during immobilization at 10 μlmin^-1, the surface of flow cell was activated by 1:1 mixture of 100 mM EDC and 100 mM NHS (both dissolved in water) for 7 min. AChE was injected for 7 min, and residual activated carboxymethyl groups were blocked on the sensor surface by 7 min injection of 1M ethanolamine, pH 8.5. In this particular study, flow cell 1 was blank immobilized (without protein) and used as a reference. Inline and double referencing was done for the buffer RU compensation.
(§3) Here the model describes this competitive situation and returns two sets of rate constants, one for each reaction taking into consideration two different analytes. The same buffer was used as running buffer. The constant flow rate was maintained throughout the kinetics (45 μlmin^-1), contact time and dissociation time was kept at 120 second (s). 10 mM glycine pH 3.0 for the time period of 30 s was used for regeneration. The experiments were carried at different concentrations of inhibitors.
(§4) The analysis of data was carried out with X100 evaluation software ver 2.0.2 and fitted to two state fit for individual molecules and for competitive experiments a heterogeneous analyte binding model.

The target in experiment [4] is T3, acetylcholinesterase from Electrophorus electricus (Electric eel) (Electrophorus electricus, UniProt O42275).
T3 construct: purchased Sigma (St. Louis, MO, USA)
T3 sequence (O42275 24-633): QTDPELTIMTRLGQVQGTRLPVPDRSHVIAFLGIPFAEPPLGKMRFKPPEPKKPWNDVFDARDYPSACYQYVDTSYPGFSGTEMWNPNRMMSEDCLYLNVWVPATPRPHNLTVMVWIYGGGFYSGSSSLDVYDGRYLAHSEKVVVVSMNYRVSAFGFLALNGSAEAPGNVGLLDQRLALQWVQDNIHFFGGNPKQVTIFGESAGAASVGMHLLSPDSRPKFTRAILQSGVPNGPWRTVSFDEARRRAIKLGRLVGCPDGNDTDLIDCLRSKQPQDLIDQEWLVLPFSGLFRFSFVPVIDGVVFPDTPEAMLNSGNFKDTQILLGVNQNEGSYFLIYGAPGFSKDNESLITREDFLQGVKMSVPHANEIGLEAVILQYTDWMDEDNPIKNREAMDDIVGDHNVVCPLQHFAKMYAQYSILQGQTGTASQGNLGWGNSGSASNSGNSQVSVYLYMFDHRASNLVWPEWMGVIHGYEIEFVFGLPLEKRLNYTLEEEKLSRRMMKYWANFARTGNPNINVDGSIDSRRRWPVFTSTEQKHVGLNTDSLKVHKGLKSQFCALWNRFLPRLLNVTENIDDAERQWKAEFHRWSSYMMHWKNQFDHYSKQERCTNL
Briefly: Inhibition assay for acetylcholinesterase activity (modified Ellman, ATCI/DTNB, 412 nm). Type of experiment: biochemical. How it is done:
The assay was performed with some modifications of Ellman et al (1961). […] The hydrolysis was monitored by the formation of yellow color (5-thio-2-nitrobenzoate anion) and the absorbance was measured at 412 nm by using spectrophotometer (UV-1800, Shimadzu, Japan).
The inhibitory activity assay was carried out with slight modifications. […] The inhibitory percentage of AChE was calculated as follows:
%inhibition = 100[A − B] − [C − D]/[A − B]
A is the OD without test substance, B is the OD without test substance and AChE, C is the OD with the test substance, D is the OD at 412 nm with the test substance and without AChE.
The relative percentage inhibition were estimated in triplicates and values were expressed as mean ± SEM (n = 3).
On the technique in general: In Ellman's method for cholinesterases, released thiocholine reacts with DTNB.

Experiment [5] has as its target T2, immobilized AChE. In words: biochemical. Type of experiment: binding. How it is done:
as §1, §2, §3, §4
Likewise, competitive experiments between different pairs was run by mixing 1:1 ratio of molecules and was fit to heterogeneous analyte model were studied. These experiments are helpful for determining the kinetics of a small molecule analyte in competition with other. Response contributions from both analytes are taken into account by considering molecular weight and concentrations of analytes. For competition binding experiments, pairing was done based on substrate-inhibitor and inhibitor-inhibitor interactions. […] Finally, naturally occurring crocin was also tested due to reports in the literature as a brain tonic for the Alzheimer's.

Experiment [6] has as its target T1, AChE. Briefly: Fluorescence spectral studies of AChE incubated with molecules. The settings on record: excitation 365 nm, control emission maxima […] nm, molecules at IC50 concentration, 10 min. How it is done: The fluorescence intensities were recorded using 0.5 mgml^-1 protein concentration with an excitation wavelength of 365 nm and an emission wavelength of 400–700 nm with slit widths of 20 nm using MY14410002 fluorescence spectrophotometer (Agilent Technologies, USA) at 25°C. Protein solutions of 0.5 mgml^-1 were prepared in 10 mM PBS at pH 7.7. Scans were performed at room temperature using a 1 cm path length quartz cuvette with 1 s differential integration time at a scan rate of 600 nm min^-1. […] The subsequent changes in fluorescence were measured at this wavelength.
Fig 21 a) Intrinsic fluorescence spectra of the AChE incubated with molecules. […] Scans were performed at 37°C using a 1 cm path length quartz cuvette with 1 s differential integration time at a scan rate of 600 nm min^-1. The excitation wavelength was 365 nm and emission wavelength was in the range of 400–700 nm. b) Intrinsic fluorescence spectra of the AChE incubated with molecules. […] Scans were performed at 37° C using a 1 cm path length quartz cuvette with 1 s differential integration time at a scan rate of 600 nm min^-1. The excitation wavelength was 365 nm and the emission wavelength was in the range of 400–700 nm.

For experiment [7], the system named is AChE activity of the central nervous tissue of L.acuminata. The conditions noted are these: 0.04 mM tannic acid; cited from earlier work.
The mark [8] stands for this setting: affinity fit, read-out: KD Affinity.
Where [9] appears, read: two-state model, read-out: KD Kinetics.
[10] abbreviates: pair crocin (molecule 1) and ATCI (molecule 2), 1:1.
[11] abbreviates: pair tannic acid (molecule 1) and ATCI (molecule 2), 1:1.

T1 sequence (O42275 24-633): as above
T2 sequence (O42275 24-633): as above

As for `O=C(O[C@@H]1Cc2c(O)cc(O)cc2O[C@@H]1c1cc(O)c(O)c(O)c1)c1cc(O)c(O)c(O)c1` [epigallocatechin gallate], the IC50 in the experiment on AChE [1] (literature value, no reference printed behind it, read-out: IC50) was 16.8 µM.

As to `CC1=C(C=O)C(C)(C)CC=C1` [safranal], the “concentration showing maximum inhibition of AChE” value with AChE [1] is 21.09 ± 0.17 µM.

As for `CC(/C=C/C=C(\C)C(=O)O[C@@H]1O[C@H](CO[C@@H]2O[C@H](CO)[C@@H](O)[C@H](O)[C@H]2O)[C@@H](O)[C@H](O)[C@H]1O)=C\C=C\C=C(C)\C=C\C=C(/C)C(=O)O[C@@H]1O[C@H](CO[C@@H]2O[C@H](CO)[C@@H](O)[C@H](O)[C@H]2O)[C@@H](O)[C@H](O)[C@H]1O` [Crocin, crocin], at AChE [2], the “Turns of AChE in presence of the molecule” value (shortened to “Turns of AChE”) was determined as 0%, the “α helix of AChE in presence of the molecule” value (shortened to “α helix of AChE”) is recorded as 5.7±0.042%, the “Random of AChE in presence of the molecule” value (“Random of AChE” for short) is recorded as 43.8±0.41% and the “β sheets of AChE in presence of the molecule” value (shortened to “β sheets of AChE”) came out at 50.5±0.74%. On immobilized AChE [3], the Ka2 is reported as 0.003559±9.4×10^−5 1/s and the Kd2 was 0.005325±1.5×10^−4 1/s. The Kd on immobilized AChE [3] (setting [8]) turned out to be 475 µM. Also, on immobilized AChE [3] (two-state model), the Ka1 was found to be 601700 ± 6700 M⁻¹ s⁻¹ and the Kd1 was determined as 472 ± 5.2 s⁻¹. Moreover, the dissociation constant (Kd) at immobilized AChE [3] (setting [9]) was 470 µM. In experiment [4], half-maximal inhibition (IC50) required 920 ± 230 µM. Also, on immobilized AChE [5], the affinity, expressed as Kd, was 6020 µM; the “Molecule 2 ka2” value was 1.010 ± 0.11 M⁻¹ s⁻¹; the “Molecule 2 kd2” value was 0.006083±1.1×10^−4 1/s. Further, on immobilized AChE [5] (setting [10]), the “Molecule 1 ka1” value is 3281±5.8×10^2 1/Ms and the “Molecule 1 kd1” value is given as 0.01684±8.5×10^−4 1/s. Besides, on AChE [6], the “change in fluorescence emission of AChE compared to control enzyme” value (from here on “change in fluorescence emission of AChE”) was “redshift”.

For tannic acid, on AChE [2], the “Turns of AChE” value turned out to be 14.8±0.08%, the “α helix of AChE” value is 5.1±0.039%, the “Random of AChE” value is 49.5±0.70% and the “β sheets of AChE” value was determined as 30.6±0.19%. Also, the Ka2 on immobilized AChE [3] is on record as 0.1039±2.2×10^−4 1/s. Besides, the Kd at immobilized AChE [3] (setting [8]) is 11.4 µM. Besides, at immobilized AChE [3] (two-state model), the Ka1 came out at 1400 ± 47 M⁻¹ s⁻¹ and the Kd1 amounted to 0.03423 ± 0.017 s⁻¹. Further, the “reduced AChE activity” value in experiment [7] was 37%. Further, in experiment [4] ([…] ATCI, PBS 200 mM pH 7.7, 37°C, mean ± SEM (n = 3), read-out: IC50), the concentration for half-maximal inhibition (IC50) is 27 ± 2 µM. On immobilized AChE [5], the “Molecule 1 ka1” value was 231.1 ± 3.3 M⁻¹ s⁻¹ and the “Molecule 1 kd1” value is 2.685e-05 ± 2.9e-08 s⁻¹. Further, at immobilized AChE [5] (setting [11]), the “Molecule 1 ka1” value came to 1.687e-05 ± 3.7e+06 M⁻¹ s⁻¹ and the “Molecule 1 kd1” value was found to be 0.01266 ± 0.028 s⁻¹. The Kd at immobilized AChE [5] (pair tannic acid (molecule 1) and ATCI (molecule 2), 1:1, read-out: Molecule 1 KD) was 0.0751 µM. For the same compound, the Kd at immobilized AChE [5] (read-out: Molecule 1 KD) came to 0.116 µM. For the same compound, at AChE [6], the “change in fluorescence emission of AChE” value is recorded as “redshift”.

For the compound `O.Oc1cc(O)c2c(c1)O[C@H](c1ccc(O)c(O)c1)[C@@H](O)C2` [catechin], the IC50 in the experiment on AChE [1] (Catechin isolated from Dasiphora fruticosa, read-out: IC50) was 1040 µM; in the experiment with AChE [1] (catechin isolated from Eugenia dysenterica), 42.39 µg/mL.

In the case of `Oc1cccc(O)c1O` [Pyrogallol, pyrogallol], the IC50 in the experiment on AChE [1] (read-out: IC50) is 10.2 µM. At AChE [2], the “Turns of AChE” value is 0%, the “α helix of AChE” value worked out at 0%, the “Random of AChE” value was 49.2±0.68% and the “β sheets of AChE” value was 50.8±0.73%. For the same compound, at immobilized AChE [3], the Ka2 is given as 0.01979±3.7×10^−4 1/s and the Kd2 is on record as 0.002793±3.2×10^−5 1/s. Moreover, at immobilized AChE [3] (setting [8]), the Kd turned out to be 119 µM. At immobilized AChE [3] (two-state model), this compound displayed a Ka1 of 200.1 ± 3.3 M⁻¹ s⁻¹ and a Kd1 of 0.05082 ± 0.0015 s⁻¹. For the same compound, the Kd at immobilized AChE [3] (setting [9]) stood at 31.4 µM. The same compound gave an IC50 in experiment [4] of 3800 ± 100 µM. Besides, the “change in fluorescence emission of AChE” value at AChE [6] is “quenching”.
